Measurements reported in ChEMBL document CHEMBL3351325, “Synthesis and biological evaluation of hydroxycinnamic acid hydrazide derivatives as inducer of caspase-3” (Eur J Med Chem, 2014).
Calls of active or inactive are those of the source. The calls are words filed in the database; no cut-off is given here.

Key:
[1] = Antiproliferative activity against human H184B5F5/M10 cells after 24 hrs by MTT assay; type: functional, cell-based; conditions: H184B5F5/M10, 24 h
[2] = Antiproliferative activity against human NL20 cells after 24 hrs by MTT assay; type: cell-based; conditions: NL20, 24 h
MCF7 = assay: Antiproliferative activity against human MCF7 cells after 24 hrs by MTT assay; type: functional, cell-based; conditions: MCF7, 24 h
[3] = Antiproliferative activity against human H1299 cells after 24 hrs by MTT assay; type: functional, cell-based; conditions: NCI-H1299, 24 h
[4] = Cell cycle arrest in human H1299 cells assessed as accumulated at G2/M phase at 1.5 uM after 24 hrs by flow cytometry (reference value: 5.4%); type: functional, cell-based; conditions: NCI-H1299
[5] = Cell cycle arrest in human H1299 cells assessed as reduction in G1 phase at 1.5 uM after 12 to 24 hrs by flow cytometry; type: functional, cell-based; conditions: NCI-H1299
NCI-H1299 [6] = assay: Induction of apoptosis in human H1299 cells assessed as caspase 3 protein expression after 24 hrs by Western blot analysis; type: functional, cell-based
[7] = Cell cycle arrest in human NL20 cells assessed as accumulation at G2/M phase at 1.5 uM after 12 to 24 hrs by flow cytometry; type: ADME, cell-based; conditions: nl20, 1.5 µM
NCI-H1299 [8] = assay: Induction of apoptosis in human H1299 cells assessed as change in morphology at 1.5 uM after 24 hrs using Acridine orange/ethidium bromide staining by fluorescence microscopy; type: functional, cell-based
[9] = Cell cycle arrest in human H1299 cells assessed as accumulation at Sub-G1 phase at 1.5 uM after 12 hrs by flow cytometry (reference value: 5.3%); type: functional, cell-based; conditions: NCI-H1299
[10] = Cell cycle arrest in human NL20 cells assessed as accumulation at Sub-G1 phase at 1.5 uM after 24 hrs by flow cytometry (reference value: 4.6 %); type: ADME, cell-based; conditions: nl20, 24 h
[11] = Cell cycle arrest in human H1299 cells assessed as accumulated at G2/M phase at 1.5 uM after 12 hrs by flow cytometry (reference value: 5.4%); type: functional, cell-based; conditions: NCI-H1299
[12] = Cell cycle arrest in human NL20 cells assessed as accumulation at Sub-G1 phase at 1.5 uM after 12 hrs by flow cytometry (reference value: 4.6 %); type: ADME, cell-based; conditions: nl20, 12 h
[13] = Cell cycle arrest in human H1299 cells assessed as accumulated at G2/M phase at 1.5 uM by flow cytometry; type: functional, cell-based; conditions: NCI-H1299, TDE = time-dependent effect
[14] = Cell cycle arrest in human H1299 cells assessed as accumulation at Sub-G1 phase at 1.5 uM after 24 hrs by flow cytometry (reference value: 5.3%); type: functional, cell-based; conditions: NCI-H1299

| Structure (SMILES) | IC50 (MCF7) | IC50 [1] | IC50 [2] | IC50 [3] | other results |
| --- | --- | --- | --- | --- | --- |
| O=C(/C=C/c1ccc(O)cc1)NNC(=O)c1ccc(O)cc1 | 8.8 µM | > 10 µM | 8.62 µM | 5.47 µM | – |
| O=C(/C=C/c1ccc(O)cc1)NNC(=O)c1ccccc1 | 7.39 µM | 9.32 µM | 9.75 µM | 7.36 µM | – |
| CC[C@@]1(O)C(=O)OCc2c1cc1n(c2=O)Cc2cc3c(CN(C)C)c(O)ccc3nc2-1 [TOPOTECAN] | 3.46 µM | > 10 µM | > 10 µM | 4.18 µM | – |
| COc1cc(/C=C/C(=O)NNC(=O)c2ccccc2)cc(OC)c1O | > 10 µM | > 10 µM | > 10 µM | > 10 µM | – |
| COc1cc(/C=C/C(=O)NNC(=O)c2ccc(O)cc2)cc(OC)c1O | 9.32 µM | > 10 µM | > 10 µM | 8.71 µM | – |
| COc1ccc(C(=O)NNC(=O)/C=C/c2cc(OC)c(O)c(OC)c2)cc1 | 7.17 µM | 9.45 µM | 9.42 µM | 7.45 µM | – |

The next lines start with results.

| IC50 (MCF7) | Structure (SMILES) | IC50 [1] | IC50 [2] | IC50 [3] | other results |
| --- | --- | --- | --- | --- | --- |
| 5.62 µM | COc1ccc(C(=O)NNC(=O)/C=C/c2ccc(O)c(OC)c2)cc1 | > 10 µM | > 10 µM | 5.42 µM | – |
| 4.86 µM | COc1ccc(C(=O)NNC(=O)/C=C/c2ccc(O)c(O)c2)cc1 | 9.57 µM | 9.39 µM | 5.42 µM | – |
| 6.02 µM | COc1ccc(C(=O)NNC(=O)/C=C/c2ccc(O)cc2)cc1 | 8.44 µM | > 10 µM | 6.64 µM | – |
| 4.36 µM | COc1cc(/C=C/C(=O)NNC(=O)c2ccc(O)cc2)ccc1O | > 10 µM | > 10 µM | 1.5 µM | Activity [4]: 46.2%; Activity [5]: Active; Activity (NCI-H1299 [6]): Dose-dependent effect; Activity [7]: Non-toxic; Activity (NCI-H1299 [8]): Active; Activity [9]: 8.9%; Activity [10]: 4.9%; Activity [11]: 31.7%; Activity [12]: 5.2%; Activity [13]: tde; Activity [14]: 12.3% |
| 4.75 µM | O=C(/C=C/c1ccc(O)c(O)c1)NNC(=O)c1ccccc1 | 8.12 µM | 8.85 µM | 6.77 µM | – |
| 6.05 µM | O=C(/C=C/c1ccc(O)c(O)c1)NNC(=O)c1ccc(O)cc1 | 8.68 µM | > 10 µM | 4.48 µM | – |
| 5.22 µM | COc1cc(/C=C/C(=O)NNC(=O)c2ccccc2)ccc1O | 9.17 µM | 9.55 µM | 6.16 µM | – |
